Results: PubChem BioAssay AID330 (DTP/NCI, 2004)
Where “and” joins values, the source holds several entries; their conditions need not be identical. Identical values can stand only once. Toxic doses and inconclusive results are not listed.

Test system: P388 leukemia ip, CD2F1 mice, survival T/C
Assay: NCI In Vivo Anticancer Drug Screen. Data for tumor model P388 Leukemia (intraperitoneal) in CD2F1 (CDF1) mice
Conditions: endpoint: median survival time, higher = longer survival
In short: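 Mice carrying the transplanted tumor received test compound or vehicle. Survival was recorded in each group, and the value is the treated-group measurement divided by that of the vehicle-treated control group.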

[1] = dose: 60.0 mg/kg/injection, schedule: Q01DX005 (ip), vehicle: saline with Tween-80
[2] = dose: 12.5 mg/kg/injection, schedule: Q01DX009 (ip), vehicle: saline with Tween-80
[3] = dose: 25.0 mg/kg/injection, schedule: Q01DX009 (ip), vehicle: saline with Tween-80
[4] = dose: 100.0 mg/kg/injection, schedule: Q04DX003 (ip), vehicle: saline
[5] = dose: 200.0 mg/kg/injection, schedule: Q04DX003 (ip), vehicle: saline
[6] = dose: 50.0 mg/kg/injection, schedule: Q01DX005 (ip), vehicle: Klucel (hydroxypropylcellulose) (HPC)
[7] = dose: 100.0 mg/kg/injection, schedule: Q01DX005 (ip), vehicle: Klucel (hydroxypropylcellulose) (HPC)
[8] = dose: 200.0 mg/kg/injection, schedule: Q01DX005 (ip), vehicle: Klucel (hydroxypropylcellulose) (HPC)

SMILES: OC1c2cc(Cl)ccc2-c2c(N=Cc3ccc4c(c3)OCO4)cc(Cl)cc21 (configuration not stated)
- T/C [1]: 91 % of control
- T/C (dose: 120.0 mg/kg/injection, schedule: Q01DX005 (ip), vehicle: saline with Tween-80): 99 % of control
- T/C (dose: 240.0 mg/kg/injection, schedule: Q01DX005 (ip), vehicle: saline with Tween-80): 98 % of control

SMILES: OC(c1cc(-c2ccc(C(F)(F)F)cc2)nc(-c2ccc(C(F)(F)F)cc2)c1)C1CCCCN1 (configuration not stated)
- T/C (dose: 6.25 mg/kg/injection, schedule: Q01DX009 (ip), vehicle: saline with Tween-80): 109 % of control
- T/C [2]: 107 % of control
- T/C [3]: 89 % of control

SMILES: CCOC(=O)[C]1([Sb]([CH3])[CH3])N=NC(C(=O)OC)=C1C(=O)OC (configuration not stated)
- T/C (dose: 25.0 mg/kg/injection, schedule: Q04DX003 (ip), vehicle: saline): 101 % of control and 98 % of control
- T/C (dose: 50.0 mg/kg/injection, schedule: Q04DX003 (ip), vehicle: saline): 100 % of control and 102 % of control
- T/C (dose: 100.0 mg/kg/injection, schedule: Q04DX003 (ip), vehicle: saline with Tween-80): 108 % of control
- T/C [4]: 102 % of control and 104 % of control
- T/C [5]: 107 % of control and 98 % of control
- T/C (dose: 400.0 mg/kg/injection, schedule: Q04DX003 (ip), vehicle: saline with Tween-80): 105 % of control

SMILES: CCCCCCCCCCCCCCCCCC(=O)NC(CC(=O)OCCCCCC)c1ccc(N(CCCl)CCCl)cc1 (configuration not stated)
- T/C (dose: 4.3 mg/kg/injection, schedule: Q01DX009 (ip), vehicle: saline): 163 % of control
- T/C (dose: 8.6 mg/kg/injection, schedule: Q01DX009 (ip), vehicle: saline): 186 % of control
- T/C (dose: 8.6 mg/kg/injection, schedule: Q03HX008 (ip), vehicle: saline): 150 % of control
- T/C (dose: 17.2 mg/kg/injection, schedule: Q01DX009 (ip), vehicle: saline): 213 % of control
- T/C (dose: 17.2 mg/kg/injection, schedule: Q03HX008 (ip), vehicle: saline): 165 % of control
- T/C (dose: 34.4 mg/kg/injection, schedule: Q03HX008 (ip), vehicle: saline): 200 % of control
- T/C (dose: 34.5 mg/kg/injection, schedule: Q03HX008 (ip), vehicle: saline): 250 % of control
- T/C (dose: 68.8 mg/kg/injection, schedule: Q03HX008 (ip), vehicle: saline): 315 % of control
- T/C (dose: 138.0 mg/kg/injection, schedule: Q03HX008 (ip), vehicle: saline): 168 % of control
- T/C (dose: 275.0 mg/kg/injection, schedule: Q03HX008 (ip), vehicle: saline): 163 % of control

SMILES: [Co+2].[O-]c1ccccc1/C=N/Nc1ccccn1.[O-]c1ccccc1/C=N/Nc1ccccn1
- T/C (dose: 100.0 mg/kg/injection, schedule: Q04DX002 (ip), vehicle: saline with Tween-80): 91 % of control
- T/C (dose: 200.0 mg/kg/injection, schedule: Q04DX002 (ip), vehicle: saline with Tween-80): 90 % of control
- T/C (dose: 400.0 mg/kg/injection, schedule: Q04DX002 (ip), vehicle: saline with Tween-80): 95 % of control

SMILES: N#Cc1cc(C23CCC(C2)N3)ccc1[N+](=O)[O-] (configuration not stated)
- T/C [4]: 105 % of control
- T/C [5]: 91 % of control
- T/C (dose: 400.0 mg/kg/injection, schedule: Q04DX003 (ip), vehicle: saline): 92 % of control

SMILES: O/N=C/C(=Nc1ccc(-c2ccc(N=C(/C=N/O)NO)cc2)cc1)NO
- T/C (dose: 60.0 mg/kg/injection, schedule: Q01DX005 (ip), vehicle: Klucel (hydroxypropylcellulose) (HPC)): 103 % of control
- T/C (dose: 120.0 mg/kg/injection, schedule: Q01DX005 (ip), vehicle: Klucel (hydroxypropylcellulose) (HPC)): 102 % of control
- T/C (dose: 240.0 mg/kg/injection, schedule: Q01DX005 (ip), vehicle: Klucel (hydroxypropylcellulose) (HPC)): 97 % of control

SMILES: O=c1[nH]c2c(ccc3cccnc32)c2c1CCC2
- T/C (dose: 12.5 mg/kg/injection, schedule: Q04DX003 (ip), vehicle: saline with Tween-80): 98 % of control
- T/C (dose: 25.0 mg/kg/injection, schedule: Q04DX003 (ip), vehicle: saline with Tween-80): 95 % of control
- T/C (dose: 50.0 mg/kg/injection, schedule: Q04DX003 (ip), vehicle: saline with Tween-80): 98 % of control

SMILES: CCCCCCCC(=O)Nc1cc2c3c(c1)CCC(=O)N3CCC2
- T/C [6]: 100 % of control
- T/C [7]: 100 % of control
- T/C [8]: 98 % of control

SMILES: COC(=O)C1=COC(C)[C@H]2CN3CCc4c([nH]c5cc(OC)ccc45)C3CC12 (some centres not stated)
- T/C (dose: 15.0 mg/kg/injection, schedule: Q01DX005 (ip), vehicle: saline with Tween-80): 92 % of control
- T/C (dose: 30.0 mg/kg/injection, schedule: Q01DX005 (ip), vehicle: saline with Tween-80): 91 % of control
- T/C [1]: 88 % of control

SMILES: COc1ccc(C2=NC(c3ccccc3)N3C(c4ccccc4)NC(c4ccccc4)C2C3c2ccccc2)cc1 (configuration not stated)
- T/C [2]: 100 % of control
- T/C [3]: 90 % of control
- T/C (dose: 50.0 mg/kg/injection, schedule: Q01DX009 (ip), vehicle: saline with Tween-80): 90 % of control and 93 % of control
- T/C (dose: 200.0 mg/kg/injection, schedule: Q01DX009 (ip), vehicle: saline with Tween-80): 91 % of control

SMILES: Nc1ccc(N)c2c1C(=O)c1c(N)ccc(N)c1C2=O
- T/C [6]: 102 % of control
- T/C [7]: 100 % of control
- T/C [8]: 101 % of control
